One may read the MIC as the least concentration at which growth counts as inhibited. Usually inhibition stands for the change of the read-out against control, counted positive when it falls.

Values after ≈ are worked out from the molar mass of the structure shown. Active and inactive are the calls of the source. The calls are words filed in the database; no cut-off is given here.

Data on 2 compounds can be found in ChEMBL document CHEMBL4406836, “The design of a cell-selective fowlicidin-1-derived peptide with both antimicrobial and anti-inflammatory activities” (Eur J Med Chem, 2019).

Assay [1] relates to Staphylococcus aureus. The assay is described as follows: Potency index, ratio of MIC of LL-37 to MIC of compound for antibacterial activity against methicillin-resistant Staphylococcus aureus CCARM 3095 assessed as reduction in bacterial growth incubated for 18 hrs by spectrophotometry based microtiter broth dilution method. It is filed as functional.
Assay [2] has as its system Staphylococcus aureus. Briefly: Potency index, ratio of MIC of melittin to MIC of compound for antibacterial activity against methicillin-resistant Staphylococcus aureus CCARM 3090 assessed as reduction in bacterial growth incubated for 18 hrs by spectrophotometry based microtiter broth dilution method. The assay is classed as functional. For orientation: In broth dilution the organism is exposed to a series of concentrations in liquid medium.

Assay [3] relates to Staphylococcus aureus. Briefly: Antibacterial activity against methicillin-resistant Staphylococcus aureus CCARM 3089 assessed as reduction in bacterial growth at 4 uM incubated for 72 hrs in presence of chloramphenicol by spectrophotometry. The assay is classed as functional. The note with it: CCARM 3089, 72 h.
The subject of assay [4] is Staphylococcus aureus. Briefly: Antibacterial activity against methicillin-resistant Staphylococcus aureus CCARM 3089 assessed as reduction in bacterial growth at 4 uM incubated for 72 hrs in presence of ciprofloxacin by spectrophotometry. The assay is classed as functional. The note with it: CCARM 3089, 72 h.
The subject of assay [5] is Staphylococcus aureus. Briefly: Potency index, ratio of MIC of LL-37 to MIC of compound for antibacterial activity against methicillin-resistant Staphylococcus aureus CCARM 3090 assessed as reduction in bacterial growth incubated for 18 hrs by spectrophotometry based microtiter broth dilution method. The assay is classed as functional.
Assay [6] relates to Staphylococcus epidermidis. The assay is described as follows: Antibacterial activity against Staphylococcus epidermidis KCTC 1917 assessed as reduction in bacterial growth incubated for 18 hrs by spectrophotometry based microtiter broth dilution method. It is filed as functional. The note with it: KCTC 1917, 18 h.
Assay [7] concerns Staphylococcus aureus. The assay is described as follows: Fractional inhibitory concentration, ratio of MIC of compound in presence of oxacillin to MIC of oxacillin for antibacterial activity against methicillin-resistant Staphylococcus aureus CCARM 3089. The assay is classed as functional.
The next assay concerns Salmonella typhimurium. Briefly: Antibacterial activity against Salmonella typhimurium KCTC 1926 assessed as reduction in bacterial growth incubated for 18 hrs by spectrophotometry based microtiter broth dilution method. The assay is classed as functional, Salmonella enterica subsp. enterica serovar Typhimurium. Conditions: Salmonella enterica, KCTC 1926, 18 h.
Assay [8] concerns Staphylococcus aureus. Briefly: Potency index, ratio of MIC of melittin to MIC of compound for antibacterial activity against methicillin-resistant Staphylococcus aureus CCARM 3089 assessed as reduction in bacterial growth incubated for 18 hrs by spectrophotometry based microtiter broth dilution method. The assay is classed as functional.
For assay [9], the system named is Staphylococcus aureus. Briefly: Antibacterial activity against methicillin-resistant Staphylococcus aureus CCARM 3089 assessed as reduction in bacterial growth at 4 uM incubated for 72 hrs in presence of oxacillin by spectrophotometry. It is filed as functional. The note with it: CCARM 3089, 72 h.
For the next assay, the system named is Enterococcus faecium. The assay is described as follows: Potency index, ratio of MIC of melittin to MIC of compound for antibacterial activity against vancomycin-resistant Enterococcus faecium ATCC 51559 assessed as reduction in bacterial growth incubated for 18 hrs by spectrophotometry based microtiter broth dilution method. The assay is classed as functional.

The next assay concerns Lipopolysaccharide (LPS). Briefly: Displacement of BODIPY-TR-cadaverine from Escherichia coli O111:B4 LPS at 16 uM by fluorescence spectrophotometry relative to control.
For another assay, the system named is Bacillus subtilis. Briefly: Antibacterial activity against Bacillus subtilis KCTC 3068 assessed as reduction in bacterial growth incubated for 18 hrs by spectrophotometry based microtiter broth dilution method. The assay is classed as functional. The note with it: KCTC 3068, 18 h.
Assay [10] relates to Pseudomonas aeruginosa. The assay is described as follows: Antibacterial activity against Pseudomonas aeruginosa KCTC 1637 assessed as reduction in bacterial growth incubated for 18 hrs by spectrophotometry based microtiter broth dilution method. The assay is classed as functional. Conditions: KCTC 1637, 18 h.
Assay [11] concerns Escherichia coli. Briefly: Antibacterial activity against Escherichia coli KCTC 1682 assessed as reduction in bacterial growth incubated for 18 hrs in presence of 4 uM FeCl3 by spectrophotometry based microtiter broth dilution method. The assay is classed as functional. The note with it: KCTC 1682, 18 h.
Assay [12] relates to Pseudomonas aeruginosa. The assay is described as follows: Fractional inhibitory concentration, ratio of MIC of compound in presence of chloramphenicol to MIC of compound for antibacterial activity against multidrug-resistant Pseudomonas aeruginosa CCARM 2095. The assay is classed as functional.
Assay [13] has as its system Staphylococcus aureus. Briefly: Antibacterial activity against Staphylococcus aureus KCTC 1621 assessed as reduction in bacterial growth incubated for 18 hrs in presence of 2.5 mM CaCl2 by spectrophotometry based microtiter broth dilution method. It is filed as functional. Conditions: KCTC 1621, 18 h.
In assay [14] the test system is Pseudomonas aeruginosa. Briefly: Fractional inhibitory concentration, ratio of MIC of compound in presence of […] uM chloramphenicol to MIC of chloramphenicol for antibacterial activity against multidrug-resistant Pseudomonas aeruginosa CCARM 2095. It is filed as functional.
Assay [15] relates to Escherichia coli. The assay is described as follows: Antibacterial activity against Escherichia coli KCTC 1682 assessed as reduction in bacterial growth incubated for 18 hrs in presence of 6 uM NH4Cl by spectrophotometry based microtiter broth dilution method. The note with it: KCTC 1682, 18 h. The assay is classed as functional.
The subject of assay [16] is Pseudomonas aeruginosa. It is filed as functional. The note with it: CCARM 2095, 72 h.
For assay [17], the system named is Escherichia coli. The assay is described as follows: Induction of membrane integrity disruption in Escherichia coli at 2 times of MIC by propidium iodide staining based flow cytometry relative to control (reference value: 2.97 %). It is filed as functional.
Assay [18] relates to Staphylococcus aureus. Briefly: Fractional inhibitory concentration, ratio of MIC of compound in presence of chloramphenicol to MIC of chloramphenicol for antibacterial activity against methicillin-resistant Staphylococcus aureus CCARM 3089. It is filed as functional.
Assay [19] concerns Staphylococcus aureus. Briefly: Potency index, ratio of MIC of melittin to MIC of compound for antibacterial activity against methicillin-resistant Staphylococcus aureus CCARM 3095 assessed as reduction in bacterial growth incubated for 18 hrs by spectrophotometry based microtiter broth dilution method. The assay is classed as functional.
Assay [20] concerns Escherichia coli. The assay is described as follows: Antibacterial activity against Escherichia coli KCTC 1682 assessed as reduction in bacterial growth incubated for 18 hrs by spectrophotometry based microtiter broth dilution method. The assay is classed as functional. The note with it: KCTC 1682, 18 h.
Assay [21] deals with Staphylococcus aureus. Briefly: Antibacterial activity against Staphylococcus aureus KCTC 1621 assessed as reduction in bacterial growth incubated for 18 hrs in presence of 20% human serum by spectrophotometry based microtiter broth dilution method. The assay is classed as functional. The note with it: KCTC 1621, 18 h.
Assay [22] concerns Pseudomonas aeruginosa. The assay is described as follows: Potentiation of ciprofloxacin-induced antibacterial activity against mutidrug-resistant Pseudomonas aeruginosa CCARM 2095 assessed as reduction in ciprofloxacin MIC at 1/16th MIC incubated for 72 hrs by spectrophotometry. It is filed as functional.
Assay [23] has as its system Staphylococcus aureus. The assay is described as follows: Induction of cytoplasmic membrane depolarization in Staphylococcus aureus at 2 times of MIC within 4 mins by SYTOX green-based assay. The assay is classed as functional, organism-based.
Assay [24] has as its system Staphylococcus aureus. Briefly: Antibacterial activity against Staphylococcus aureus KCTC 1621 assessed as reduction in bacterial growth incubated for 18 hrs in presence of […] by spectrophotometry based microtiter broth dilution method. It is filed as functional. The note with it: KCTC 1621, 18 h.
Assay [25] deals with Staphylococcus aureus. The assay is described as follows: Antibacterial activity against Staphylococcus aureus KCTC 1621 assessed as reduction in bacterial growth incubated for 18 hrs in presence of 4.5 mM KCl by spectrophotometry based microtiter broth dilution method. It is filed as functional. The note with it: KCTC 1621, 18 h.
The subject of assay [26] is Pseudomonas aeruginosa. The assay is described as follows: Antibacterial activity against multidrug-resistant Pseudomonas aeruginosa CCARM 2095 assessed as reduction in bacterial growth at 4 uM incubated for 72 hrs in presence of chloramphenicol by spectrophotometry. It is filed as functional. Conditions: CCARM 2095, 72 h.
For assay [27], the system named is Pseudomonas aeruginosa. Briefly: Antibacterial activity against multidrug-resistant Pseudomonas aeruginosa CCARM 2095 assessed as reduction in bacterial growth at 4 uM incubated for 72 hrs in presence of ciprofloxacin by spectrophotometry. The assay is classed as functional. The note with it: CCARM 2095, 72 h.
Assay [28] concerns Staphylococcus aureus. Briefly: Antibacterial activity against methicillin-resistant Staphylococcus aureus CCARM 3089 assessed as reduction in bacterial growth at 8 uM incubated for 72 hrs in presence of ciprofloxacin by spectrophotometry. It is filed as functional. The note with it: CCARM 3089, 72 h.
Another assay relates to RAW264.7. The assay is described as follows: Antiinflammatory activity in mouse RAW264.7 cells assessed as reduction in LPS-induced TNFalpha gene expression at 8 uM incubated for 6 hrs by qRT-PCR analysis. It is filed as functional, cell-based.

With H-LVIRWVRAGYKLYRAIKKK-NH2, the Ratio with Staphylococcus aureus [1], with Staphylococcus aureus [2], in the assay on Staphylococcus aureus [5], in the assay with Staphylococcus aureus [8], with Enterococcus faecium and in the assay with Staphylococcus aureus [19] was 2 - 8 each time. For the same compound, the minimum inhibitory concentration (MIC) with Staphylococcus aureus [3] came out at 0.5 µM; in the assay with Staphylococcus aureus [4] it was 0.5 µM; in assay [6], 4 µM; in the assay with Salmonella typhimurium it was 2 µM; in the assay with Staphylococcus aureus [9] it was 1 µM; with Bacillus subtilis, 2 µM. Further, the MIC with Pseudomonas aeruginosa [10] amounted to 8 µM; with Escherichia coli [11], 4 µM; with Staphylococcus aureus [13], 2 µM; with Escherichia coli [15], 4 µM; in the assay on Pseudomonas aeruginosa [16], 64 µM; with Escherichia coli [20] it was 4 µM. Besides, the MIC was determined as 4 µM with Staphylococcus aureus [21], 4 µM with Staphylococcus aureus [24] and 2 µM in the assay with Staphylococcus aureus [25]. Besides, the FIC is given as 0.25 in the assay with Staphylococcus aureus [7], 0.25 in the assay on Pseudomonas aeruginosa [12], 0.031 in the assay with Pseudomonas aeruginosa [14] and 0.125 in the assay with Staphylococcus aureus [18]. For the same compound, the inhibition in the assay on Lipopolysaccharide (LPS) was 100%. In the assay on Escherichia coli [17], this compound displayed an Activity of 68.98%. The “fold change (FC)” value in the assay with Pseudomonas aeruginosa [22] is recorded as 4 - 16. In the assay with Staphylococcus aureus [23], the outcome was Active.

Take `CC[C@H](C)[C@H](NC(=O)[C@H](CCCCN)NC(=O)[C@H](CCC(=O)O)NC(=O)[C@H](CCCCN)NC(=O)[C@H](CO)NC(=O)[C@H](CCCCN)NC(=O)[C@H](CCCNC(=N)N)NC(=O)[C@H](Cc1ccccc1)NC(=O)[C@H](Cc1ccccc1)NC(=O)[C@H](CC(=O)O)NC(=O)CNC(=O)[C@H](CC(C)C)NC(=O)[C@@H](N)CC(C)C)C(=O)NCC(=O)N[C@@H](CCCCN)C(=O)N[C@@H](CCC(=O)O)C(=O)N[C@@H](Cc1ccccc1)C(=O)N[C@@H](CCCCN)C(=O)N[C@@H](CCCNC(=N)N)C(=O)N[C@H](C(=O)N[C@H](C(=O)N[C@@H](CCC(N)=O)C(=O)N[C@@H](CCCNC(=N)N)C(=O)N[C@H](C(=O)N[C@@H](CCCCN)C(=O)N[C@@H](CC(=O)O)C(=O)N[C@@H](Cc1ccccc1)C(=O)N[C@@H](CC(C)C)C(=O)N[C@@H](CCCNC(=N)N)C(=O)N[C@@H](CC(N)=O)C(=O)N[C@@H](CC(C)C)C(=O)N[C@H](C(=O)N1CCC[C@H]1C(=O)N[C@@H](CCCNC(=N)N)C(=O)N[C@H](C(=O)N[C@@H](CCC(=O)O)C(=O)N[C@@H](CO)C(=O)O)[C@@H](C)O)C(C)C)[C@@H](C)CC)C(C)C)[C@@H](C)CC` [CATHELICIDIN]: the MIC in the assay with Pseudomonas aeruginosa [26] was determined as 2 µM; with Pseudomonas aeruginosa [27], 2 µM; in the assay with Staphylococcus aureus [28], 8 µM; against Pseudomonas aeruginosa [16], 128 µM (≈ 575 µg/mL). Besides, the FIC worked out at 0.25 in the assay with Staphylococcus aureus [7], 0.5 in the assay with Pseudomonas aeruginosa [12], 0.25 in the assay with Pseudomonas aeruginosa [14] and 0.5 with Staphylococcus aureus [18]. Also, the inhibition result in the assay with RAW264.7 was “Active”. Besides, the Activity with Escherichia coli [17] amounted to 55.5%. The “fold change (FC)” value with Pseudomonas aeruginosa [22] is given as 2 - 4. The outcome in the assay with Staphylococcus aureus [23] was Active.
